The values that follow come from patent US20230381170A1, “METHOD FOR TREATING ALS/FTD THROUGH DEGRADATION OF RNA REPEAT EXPANSION” (University of Florida Research Foundation, Incorporated, priority 2020, published 2023).

For test [1], the system named is r(G4C2)exp-containing nuclear foci. Kind of test: RNA FISH of foci in brain of +/+PWR500 mice. The format is in vivo, mouse. The settings on record: compared to vehicle. On the procedure: Therapeutic Efficacy in a c9ALS/FD mouse model. All animal studies were completed as approved by the Scripps Florida Institutional Animal Care and Use Committee. A total of 24 mice (12+/+PWR500 [7 Male and 5 Female] and 12 WT [6 Male and 6 Female]) mice, age- and gender-matched and ranging in age from 18-22 weeks old were used in therapeutic efficacy studies (Table 6). Mice were anesthetized by intraperitoneal (i.p.) injection of 10 mg/mL Ketamine:1 mg/mL Xylazine solution. Intracerebroventricular (ICV) stereotactic injections of 10 μL of 7 (33 nmol) were administered into the right ventricle using the following coordinates: 0.2 mm posterior and 1.0 mm lateral to the right from the bregma and 3 mm deep. Mice were treated with 7 or vehicle consisting of 1% DMSO in Saline. Three weeks post-treatment, mice were euthanized, and tissue was harvested for study.
Fluorescence in situ Hybridization (FISH) with Immunofluorescence (IF). Tissues were excised, and brain tissue was sliced at the midline. The right hemisphere was fresh frozen with OCT in 2-methylbutane in liquid nitrogen, and 10 μm thick sections were prepared using a cryostat. The slides were then stained as previously described (36). […] Average number of foci per nuclei was assessed for each sample and reported. Statistical analysis was measured using an unpaired t-test with Welch's correction.

Another test has as its system d(G4C2)8. Kind of test: Biolayer interferometry (BLI) binding. Particulars: for Kd: BLI. Here is the method:
(§1) Biolayer Interferometry (BLI). BLI studies were performed similarly as previously described (12) using an Octet RED96. Briefly, 5′-biotinylated nucleic acids were folded by heating at 95° C. for 4 min in 10 mM sodium phosphate buffer, pH 7, followed by slowly cooling to room temperature. Then, to the folded RNA were added the following components: 1.386 mL 1×DPBS (21-031-CV, Corning), 180 μL freshly prepared 1% (w/v) BSA, 36 μL 1% (v/v) Tween-20, and 18 μL DMSO (1% final concentration) in a final volume of 1.8 mL. The final concentration of RNA was 0.5 μM. Separately, serial dilutions of the compound of interest were prepared in the same buffer.
(§2) Streptavidin sensors (SA, #18-5019, ForteBio) were equilibrated with buffer for 10 min at room temperature using 96-well black microplate (Greiner; Catalog #: 655209). The following time intervals were used during data acquisition (30° C. with shaking at 1000 rpm): baseline step, 180 s; loading of RNA, 900 s; washing, 180 s; association of compound, 1800 s; and dissociation of compound, 1800 s. The resulting curves were analyzed and processed using Octet Data Analysis software version 9.1 by subtracting the response of the sensors recorded upon incubation with solutions containing compound and no RNA (parallel reference). The data were then fitted assuming reversible binding using the entire time interval for association and dissociation using either 1:1 or the 2:1 heterogeneous binding curve fitting model. The reported Kd,n, kon,n and koff,n values represent the average of two independent experiments.

Another test concerns r(G2C2)10. Kind of test: Biolayer interferometry (BLI) binding. On the procedure:
as §1, §2

A further test deals with r(G2C4)8. Kind of test: Biolayer interferometry (BLI) binding. Here is the method: as §1, §2

SMILES strings stand for the structures. Read-outs that look alike come from different tables or passages of the source.

As a reminder, the Kd is the constant that tells how readily two partners part at equilibrium.

For the molecule `CCOC(=O)C1=C(Nc2ccccc2)S/C(=C\c2ccc(OCCOCCOCCOCCNC(=O)CCC(=O)N(CCOCCOCCOc3ccc4[nH]c5c(C)c6ccncc6c(C)c5c4c3)CCOCCOCCOc3ccc4[nH]c5c(C)c6ccncc6c(C)c5c4c3)c(O)c2)C1=O` [Compound 7], the “number of r(G4C2)exp-containing nuclear foci” value in test [1] (brain) is “decreased”. The “abundance of antisense r(G2C4)exp foci” value in test [1] was “No effect”.

Consider `Cc1c2ccncc2c(C)c2c1[nH]c1ccc(OCCOCCOCCNCCOCCOCCOc3ccc4[nH]c5c(C)c6ccncc6c(C)c5c4c3)cc12` [Compound 3], for which, in the test on d(G4C2)8, the “selective for r(G4C2)8 over d(G4C2)8” value is listed as around 225 fold. The Kd amounted to 900 nM on d(G4C2)8 (read-out: Kd, 1); 3600 nM on d(G4C2)8 (read-out: Kd, 2); 800 nM on r(G2C2)10 (BLI, read-out: Kd, 1); 400 nM at r(G2C4)8 (BLI, read-out: Kd, 1). The “selective for r(G4C2)8 over r(G2C2)10” value in the test with r(G2C2)10 was around 200 fold. Further, in the test with r(G2C4)8, the “selective for r(G4C2)8 over r(G2C4)8” value is listed as around 10 fold.
